From patent EP1958941A1, “Oxazolidinones and their use as hypocholesterolemic agents” (Lipideon Biotechnology AG, priority 2007, dated 2008)

tested on: rabbit brush border membrane vesicles (BBMV); test: inhibition of cholesterol uptake in rabbit brush border membrane vesicles (scavenger receptor-mediated uptake of radiolabelled cholesterol ester from donor particles); format: biochemical; details: inhibition of uptake of radiolabelled cholesterol ester from loaded donor particles into the BBMV bilayer; test concentration not given
Procedure: Chem. Int. Ed. 2004, 43, 4653-4656; Kvaerno, L. et. al. Org. Lett. 2005, 7, 1145-1148, van Bennekum, A. et. al. Biochemistry 2005, 44, 4517-4525).
The compounds of the invention (commercially obtained or prepared according to Wu, G. Z. et al., J. Org. Chem. 1999, 64, 3714-3718) together with the glucuronide (the metabolite of ezetimibe, prepared according to Vaccaro and Davis, Bioorg. Med. Chem. Lett. 1998, 8, 313-318) as appropriate reference compounds were evaluated by well-established methods to determine their inhibition of cholesterol uptake in rabbit brush border membrane vesicles (BBMV) (Table 1). Briefly, the scavenger receptor-mediated uptake of radiolabelled cholesterol ester from the loaded donor particles into the BBMV bilayer was measured in the presence of various compounds of the invention and appropriate reference compounds (Kvaerno, L. et al, Angew. Chem. Int. Ed. 2004, 43, 4653-4656; Kvaerno, L. et al, Org. Lett. 2005, 7, 1145-1148).

Question: How did the “CAI (%) Inhibition” value turn out when `O=C(NCCN1CCOCC1)c1ccc(N2C(=O)O[C@H](CO)[C@H]2c2ccc(OCc3ccccc3)cc2)cc1` [Compound 36, 4-((4R,5S)-4-(4-(benzyloxy)phenyl)-5-(hydroxymethyl)-2-oxooxazolidin-3-yl)-N-(2-morpholinoethyl)-benzamide] was run?
Answer: Its value is 33 ± 2%.

Question: With `O=C1[C@H](CC[C@H](O)c2ccc(F)cc2)[C@@H](c2ccc(O)cc2)N1c1ccc(F)cc1` [Ezetimibe, reference compound] as the compound, how does the “CAI (%) Inhibition” value read?
Answer: Its value is 15 ± 4%.

Question: Which “CAI (%) Inhibition” value does the source give for `CCCNC(=O)c1ccc(N2C(=O)O[C@H](CO)[C@H]2c2ccc(O)cc2)cc1` [Compound 15, 4-((4R,5S)-5-(hydroxymethyl)-4-(4-hydroxyphenyl)-2-oxooxazolidin-3-yl)-N-propylbenzamide] here?
Answer: The value was 15 ± 4%.

Question: `C[N+](C)(C)CCNC(=O)c1ccc(N2C(=O)O[C@H](CO)[C@H]2c2ccc(O)cc2)cc1` [Compound 35, ((4R,5S)-4-(4-hydroxyphenyl)-5-(hydroxymethyl)-2-oxooxazolidin-3-yl)-N-(2-(trimethylamoniumbromide)ethyl)-benzamide] was tested. Which “CAI (%) Inhibition” value did it give?
Answer: The value was 20 ± 1%.

Question: How did the “CAI (%) Inhibition” value turn out when `C[N+](C)(C)CCNC(=O)c1ccc(N2C(=O)O[C@H](CO)[C@H]2c2ccc(OCc3ccccc3)cc2)cc1` [Compound 34, ((4R,5S)-4-(4-(benzyloxy)phenyl)-5-(hydroxy-methyl)-2-oxooxazolidin-3-yl)-N-(2-(trimethylamonium-iodide)ethyl)benzamide] was run?
Answer: The value was 29 ± 3%.

Question: How did the “CAI (%) Inhibition” value turn out when `O=C1O[C@H](Cn2nncc2-c2ccc(F)cc2)[C@@H](c2ccc(O)cc2)N1c1ccc(F)cc1` [Compound 30, (4R,5R)-3-(4-fluorophenyl)-5-((5-(4-fluorophenyl)-1H-1,2,3-triazol-1-yl)methyl)-4-(4-hydroxyphenyl)oxazolidin-2-one] was run?
Answer: Its value is 16 ± 1%.

Question: Which “CAI (%) Inhibition” value does the source give for `O=C1O[C@H](Cn2nncc2-c2ccccc2)[C@@H](c2ccc(O)cc2)N1c1ccc(F)cc1` [Compound 29, (4R, 5R)-3-(4-fluorophenyl)-4-(4-hydroxyphenyl)-5-((5-phenyl-1H-1,2,3-triazol-1-yl)methyl)oxazolidin-2-one] here?
Answer: The value was 15 ± 1%.

Question: For `CN(C)CCNC(=O)c1ccc(N2C(=O)O[C@H](CO)[C@H]2c2ccc(O)cc2)cc1` [Compound 33, N-(2-(dimethylamino)ethyl)-4-((4R,5S)-5-(hydroxymethyl)-4-(4-hydroxyphenyl)-2-oxooxazolidin-3-yl)-benzamide], which “CAI (%) Inhibition” value is on record?
Answer: Its value is 16 ± 2%.

Question: For `C[N+]1(CCNC(=O)c2ccc(N3C(=O)O[C@H](CO)[C@H]3c3ccc(OCc4ccccc4)cc3)cc2)CCOCC1.[I-]` [Compound 38, 4-(2-(4-((4R,5S)-4-(4-(benzyloxy)phenyl)-5-(hydroxymethyl)-2-oxooxazolidin-3-yl)benzamido)ethyl)-4-methylmorpholin-4-ium iodide], which “CAI (%) Inhibition” value is on record?
Answer: Its value is 24 ± 2%.

Question: With `O=C(NCCN1CCOCC1)c1ccc(N2C(=O)O[C@H](CO)[C@H]2c2ccc(O)cc2)cc1` [Compound 37, 4-((4R,5S)-5-(hydroxymethyl)-4-(4-hydroxy-phenyl)-2-oxooxazolidin-3-yl)-N-(2-morpholinoethyl)-benzamide] as the compound, how does the “CAI (%) Inhibition” value read?
Answer: The value was 21 ± 3%.
